Laboratory results published in patent US20070265451A1, “Process for the preparation of oxazolidinones and method of use thereof” (Board of Trustees of Michigan State University, priority 2001, published 2007).
Converted amounts (≈) assume the structure as drawn.

What was measured:
Type in all cases: cell-based
[1] = test system: Enterococcus faecalis 29212; experiment: Broth microdilution MIC, Enterococcus faecalis ATCC 29212; settings: for MIC: ATCC29212, Table 2, read-out: MIC(90-100) EF-ATCC 29212; for MIC(90-100) EF-ATCC 29212: Table 2
[2] = test system: Erythroid bone marrow cells; experiment: Bone marrow cell growth inhibition, erythroid
Source text: (§1) In general, many of the substituted oxazolidinones were as effective as ZYVOX.

[3] = test system: Megakaryocytic bone marrow cells; experiment: Bone marrow cell growth inhibition, megakaryocytic
Source text: as §1

[4] = test system: Staphylococcus aureus 29213; experiment: Broth microdilution MIC, Staphylococcus aureus ATCC 29213; settings: for MIC: ATCC29213, Table 2, read-out: MIC(90-100) SA-ATCC 29213; for MIC(90-100) SA-ATCC 29213: Table 2
Source text: See, NCCLS document M7-A5. Methods for Dilution Antimicrobial Susceptibility Tests for Bacteria That Grow Aerobically; Approved Standard-Fifth Edition. Volume 20, Number 2. January 2000, (ISBN 1-56238-394-9) and Lorian V. Antibiotics. Laboratory Medicine. 4th ed. Baltimore: Williams and Wilkins, pp. 52-111 (1996). For subsequent testing, the following strains have been used: Staphylococcus aureus NRS4 (992; HIP5836; New Jersey) (Smith et al., New Engl. J. Med. 340: 493-501 (1999); Tenover et al., J. Clin. Microbiol. 36: 1020-1027 (1998)), Staphylococcus aureus NRS3 (963sm; HIP5827; Michigan) (Smith et al., ibid.; Tenover et al., ibid.), Staphylococcus aureus NRS103 (Becker) (Karakawa and Vann, Sem. Infect. Dis. 4: 285 (1982), Staphylococcus aureus NRS102 (Reynolds) Karakawa and Vann, ibid; McMurray et al., JID 162: 759-762 (1990)), Staphylococcus epidermidis NRS101 (ATCC 35984), Streptococcus pneumoniae (ATCC 49619), Enterococcus faecalis (ATCC 51299), and Staphylococcus aureus (ATCC 43300.
Stock cultures of these strains were obtained by seeding colonies from overnight streak plates (Tryptic Soy Agar II (TSAII) and 5% sheep's blood (SB) agar plates: Becton Dickinson, CA#2211261) into sterile Mueller-Hinton Broth (MHB)(Becton Dickinson, CA#211443) and growing the suspensions to mid-late log phase in 13 mL screw-cap tubes. Glycerol (Sigma, CA#G-6279) was sterilized by autoclaving for 15 minutes at 121° C. in 6 mL volumes, and then stored at 2-8° C. This was diluted to 20% in dH2O, and then added 1:1 (250 μL:250 μL, 10% final glycerol concentration) to the logarithmically growing bacterial suspension of each strain. Tubes were frozen and stored at −70° C. Purity of the stock cultures was tested by thawing one tube of each strain in a water bath at 37° C. and plating them on TSAII with 5% SB. Plates were incubated overnight at 37° C. and colonies were examined for morphology. Growth curves and approximate CFU/mL were also obtained.
High purity substituted oxazolidinones prepared according to the method of the present invention and a ZYVOX standard (ZYVOX is a trade name for linezolid available from Pharmacia Corporation) were provided by Synthon Corporation, Monmouth Junction, N.J. Compounds were dissolved at 10 mg/mL in DMSO, as after a dilution of approx. 39.0 to reach the desired final starting concentration of 256 ug/ml, the concentration of DMSO is approximately 2.5%. Compounds were then stored at room temperature (25° C.) in the dark.
Antimicrobial susceptibility screening was as follows. All compounds were initially screened for activity in duplicate at 256 μg/mL (2.5% DMSO), including ZYVOX, the positive control for antimicrobial activity. A single well of bacterially inoculated 2.5% DMSO served as a positive control for bacterial growth, while a well of DMSO inoculated with of 50 μL of sterile 0.9% saline served as a negative growth control. Controls were prepared on every microplate, so that 46 was the maximum number of compounds that were screened per plate. Broth was pipetted into sterile microcentrifuge tubes, to which the compounds were then added (1:19.53 dilution or 2× final concentration). Each tube was vortexed, and 50 μL was immediately transferred to the microplate wells for each strain. Solubility was assessed by visual observation. MB (medium broth solubility) was recorded if the solution appeared only slightly cloudy. LB (low broth solubility) was recorded if the solution was extremely cloudy, and especially if larger, clumpy precipitates formed. Bacteria were grown as described above, although absorbance was measured at 650 nm and bacteria were diluted to an initial OD of 0.12-0.15. Bacteria were then further diluted 1:100 with 0.9% sterile saline. Within 15 minutes of this final dilution, 50 μL of this suspension was added to each well for a final volume of […], and a final bacterial concentration of 1×10^5 CFU/mL (except for the negative control well). Plates were grown as above and all observations were recorded. […]

[5] = test system: Myeloid bone marrow cells; experiment: Bone marrow cell growth inhibition, myeloid
Source text: as §1

Row | MIC ([1]; Enterococcus faecalis) | MIC ([4]; Staphylococcus aureus) | Structure (SMILES) | other results
1 |  |  | COc1ccc(C(=O)CN2C[C@@H](COS(=O)(=O)c3ccc(Cl)c4nonc34)OC2=O)cc1 [Compound 207] | MIC90 ([1]; Enterococcus faecalis, ATCC29213, Table 1, EF, strain printed ATCC 29213, read-out: MIC90-100 EF ATCC 29213): 250 µg/mL (≈ 519 µM); IC50 [2]: 0.2 µg/mL (≈ 0.415 µM); IC50 [3]: 3 µg/mL (≈ 6.23 µM); MIC90 ([4]; Staphylococcus aureus, ATCC29212, Table 1, SA, strain ATCC 29212, read-out: MIC90-100 SA ATCC 29212): 64 to 125 µg/mL (≈ 133 to 259 µM); IC50 [5]: 0.8 µg/mL (≈ 1.66 µM)
2 | 250 µg/mL (≈ 669 µM) | 62.5 µg/mL (≈ 167 µM) | C=CCN1CC(COS(=O)(=O)c2ccc(Cl)c3nonc23)OC1=O (centres unmarked) [Compound 255] | 
3 | 250 µg/mL (≈ 625 µM) | 125 µg/mL (≈ 313 µM) | CCC#CCN1CC(COS(=O)(=O)c2ccc(Cl)c3nonc23)OC1=O (centres unmarked) [Compound 276] | 
4 |  |  | CCCCN1CC(COS(=O)(=O)c2ccc(Cl)c3nonc23)OC1=O (centres unmarked) [Compound 285] | MIC(90-100) EF-ATCC 29212 [1]: 250 µg/mL (≈ 641 µM); MIC(90-100) SA-ATCC 29213 [4]: 62.5 µg/mL (≈ 160 µM)
5 | 250 µg/mL (≈ 679 µM) | 31.3 µg/mL (≈ 85 µM) | CCC#CCN1CC(COS(=O)(=O)c2ccc([N+](=O)[O-])cc2)OC1=O (centres unmarked) [Compound 294] | 
6 | 125 µg/mL (≈ 275 µM) | 250 µg/mL (≈ 551 µM) | COc1cccc(CN2CC(COS(=O)(=O)c3ccc(Cl)c4nonc34)OC2=O)c1 (centres unmarked) [Compound 323] | 
7 | 250 µg/mL (≈ 487 µM) | 62.5 µg/mL (≈ 122 µM) | COc1ccc(C(=O)CN2CC(COS(=O)(=O)c3sc(NC(C)=O)nc3C)OC2=O)c(OC)c1 (centres unmarked) [Compound 324] | 
8 | 31.3 µg/mL (≈ 66.6 µM) | 250 µg/mL (≈ 532 µM) | O=C(CN1CC(COS(=O)(=O)c2ccc(Cl)c3nonc23)OC1=O)c1ccc(F)cc1 (centres unmarked) [Compound 369] | 
9 |  |  | O=C(CN1CC(COS(=O)(=O)c2ccc(Cl)c3nonc23)OC1=O)c1ccc(F)cc1 (centres unmarked) [Compound 401] | MIC(90-100) EF-ATCC 29212 [1]: 62.5 µg/mL (≈ 133 µM); MIC(90-100) SA-ATCC 29213 [4]: 250 µg/mL (≈ 532 µM)
10 | 125 µg/mL (≈ 308 µM) | 250 µg/mL (≈ 616 µM) | COC(=O)CN1C[C@@H](COS(=O)(=O)c2ccc(Cl)c3nonc23)OC1=O [Compound 674] | 
11 | 125 µg/mL (≈ 292 µM) | 64 µg/mL (≈ 149 µM) | CC(C)(C)OC(=O)/C=C/N1C[C@@H](COS(=O)(=O)c2ccc([N+](=O)[O-])cc2)OC1=O [Compound 1001] | 
12 |  | 32 µg/mL (≈ 104 µM) | CC(=O)OC(C(=O)OC[C@@H]1CN(C)C(=O)O1)c1ccccc1 (some centres unmarked) [Compound 1097] | 
13 | 128 µg/mL (≈ 328 µM) | 64 µg/mL (≈ 164 µM) | CCCCN1CC(COS(=O)(=O)c2ccc(Cl)c3nonc23)OC1=O (centres unmarked) [Compound 1141] | 
14 |  | 128 µg/mL (≈ 320 µM) | CCOC(=O)/C=C/N1C[C@@H](COS(=O)(=O)c2ccc([N+](=O)[O-])cc2)OC1=O [Compound 1160] | 
15 | 128 µg/mL (≈ 354 µM) | 256 µg/mL (≈ 708 µM) | CCN1C[C@@H](COS(=O)(=O)c2ccc(Cl)c3nonc23)OC1=O [Compound 1196] | 
16 |  | 256 µg/mL (≈ 702 µM) | CCN1C[C@@H](COS(=O)(=O)c2ccc(Cl)c([N+](=O)[O-])c2)OC1=O [Compound 1210] | 
